For experiment [1], the target named is T1, Sa-ClpP (Staphylococcus aureus, UniProt Q2G036).
T1 construct: made in house; host or cells: E. coli BL21(DE3)
T1 sequence (Q2G036 1-195): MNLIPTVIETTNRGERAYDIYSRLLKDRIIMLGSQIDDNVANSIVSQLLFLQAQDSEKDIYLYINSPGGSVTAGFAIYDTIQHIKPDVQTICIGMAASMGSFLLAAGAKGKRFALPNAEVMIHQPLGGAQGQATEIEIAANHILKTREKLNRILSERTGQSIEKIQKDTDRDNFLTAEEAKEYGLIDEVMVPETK
In words: Sa-ClpP casein-BODIPY ClpP activation assay, method variant not marked in Table 5. It counts as biochemical, S. aureus. The procedure, abridged: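 EC50 for activation derived by dose-response fitting of casein digestion rates, run in triplicate. Conditions: 37° C, pH 8 buffer with 200 mM KCl and 1 mM TCEP, 10 μM Sa-ClpP, 25 μg/ml BODIPY FL casein, compound at 0-1000 μM; signal at 485/528 nm followed 45 min.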

The target of experiment [2] is T1, Sa-ClpP. Briefly: ADEP displacement fluorescence polarization assay (FP probe ADEP 2591). In kind it is binding. In short, it runs like this:
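Probe displacement was measured in mP after compounds sat 120 min at room temperature with pre-equilibrated (1 h) Sa-ClpP (15 μM) and ADEP 2591 FP probe (50 nM) in pH 8.0 Tris-HCl with 2% DMSO. Data were scaled between DMSO and 200 μM ADEP 2378 and fit by variable-slope log-inhibitor regression.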

Where [3] appears, read: values without ** or † mark, assay variant not stated, read-out: ClpP Activation EC50.

By EC50 is commonly meant the concentration giving half of the maximal effect. In general, IC50 refers to the concentration at which inhibition is half-maximal.

Like-named read-outs stand apart in the source and are kept apart here. *1 amine or outer side, *2 acyl side, *3 side chain or, on linkers, in order; H or OH if unused. Where a SMILES comes first, the peptide text is derived from it. Bridges are numbered along the chain shown (N, C = ends). [ ]: non-standard residue; d: D form. The star is where a group is joined. ξ: configuration not given here. Phe(3,5-F2) = N[C@@H](Cc1cc(F)cc(F)c1)C(=O)O; NH(1-Me-indolin-5-yl) = CN1CCc2cc(N*)ccc21; Morpholine(3S-CO) = O=C(O)[C@@H]1COCCN1; NH(4-Cl-2-F-phenyl) = Fc1cc(Cl)ccc1N*; Pro(4R-Me) = C[C@H]1CN[C@H](C(=O)O)C1; Hyp = O=C(O)[C@@H]1C[C@@H](O)CN1; NMeT = CN[C@H](C(=O)O)[C@@H](C)O; Heptenoyl(2E) = CCCC/C=C/C(=O)*; ξNMeThr = CNC(C(=O)O)[C@@H](C)O; aThr = C[C@H](O)[C@H](N)C(=O)O; Pip = O=C(O)[C@@H]1CCCCN1; X4 = c1cc2c(cc1N*)CCC2; X8 = c1cc2c(cc1N*)CCO2; X6 = Cc1cc(C)cc(N*)c1; CO = O=C([*:1])[*:2]

As to `CCCC/C=C/C(=O)N[C@@H](Cc1cc(F)cc(F)c1)C(=O)N[C@@H]1C(=O)N2C[C@H](O)C[C@H]2C(=O)N2CCCC[C@H]2C(=O)N[C@@H](C)C(=O)N2C[C@H](C)C[C@H]2C(=O)O[C@H]1C` [Compound 301, (E)-N—((S)-3-(3,5-difluorophenyl)-1-(((2R,6S,8aS,14aS,16R,20S,21S,23aS)-16-hydroxy-2,6,21-trimethyl-5,8,14,19,23-pentaoxooctadecahydro-1H,5H,14H,19H-pyrido[2,1-i]dipyrrolo[2,1-c:2′,1′-l][1]oxa[4,7,10,13]tetraazacyclohexadecin-20-yl)amino)-1-oxopropan-2-yl)hept-2-enamide] ({Heptenoyl(2E)}-[Phe(3,5-F2)][aThr][Hyp][Pip]A[Pro(4R-Me)]; ester 2-C), the half-maximal effective concentration (EC50) on Sa-ClpP [1] (setting [3]) turned out to be 420 ± 10 nM. The compound further had a half-inhibitory concentration (IC50) at Sa-ClpP [2] of 7070 ± 300 nM.

With `C[C@@H]1C[C@H]2C(=O)O[C@@H](C)[C@H](NC(=O)[C@H](Cc3cc(F)cc(F)c3)NC(=O)Nc3ccc4c(c3)CCC4)C(=O)N3CCC[C@H]3C(=O)N3CCCC[C@H]3C(=O)N[C@@H](C)C(=O)N2C1` [Compound 302, (S)-3-(3,5-difluorophenyl)-2-(3-(2,3-dihydro-1H-INDEN-5-yl)ureido)-N-((2R,6S,8aS,14aS,20S,21S,23aS)-2,6,21-trimethyl-5,8,14,19,23-pentaoxooctadecahydro-1H,5H,14H,19H-pyrido[2,1-i]dipyrrolo[2,1-c:2′,1′-l][1]oxa[4,7,10,13]tetraazacyclohexadecin-20-yl)propanamide] ({X4-CO}-[Phe(3,5-F2)][aThr]P[Pip]A[Pro(4R-Me)]; ester 2-C), at Sa-ClpP [1] (setting [3]), the concentration giving a half-maximal response (EC50) came out at 480 ± 10 nM. Further, at Sa-ClpP [2], the IC50 was 9640 ± 600 nM.

As for `Cc1cc(C)cc(NC(=O)N[C@@H](Cc2cc(F)cc(F)c2)C(=O)N[C@@H]2C(=O)N3CCC[C@H]3C(=O)N3CCCC[C@H]3C(=O)N[C@@H](C)C(=O)N3C[C@H](C)C[C@H]3C(=O)O[C@H]2C)c1` [Compound 304, (S)-3-(3,5-difluorophenyl)-2-(3-(3,5-dimethylphenyl)ureido)-N-((2R,6S,8aS,14aS,20S,21S,23aS)-2,6,21-trimethyl-5,8,14,19,23-pentaoxooctadecahydro-1H,5H,14H,19H-pyrido[2,1-i]dipyrrolo[2,1-c:2′,1′-l][1]oxa[4,7,10,13]tetraazacyclo-hexadecin-20-yl)propanamide] ({X6-CO}-[Phe(3,5-F2)][aThr]P[Pip]A[Pro(4R-Me)]; ester 2-C), the EC50 on Sa-ClpP [1] was 380 ± 10 nM. The same compound returned an IC50 on Sa-ClpP [2] of 6520 ± 300 nM.

On to `C[C@@H]1C[C@H]2C(=O)O[C@@H](C)[C@H](NC(=O)[C@H](Cc3cc(F)cc(F)c3)NC(=O)Nc3ccc4c(c3)CCO4)C(=O)N3CCC[C@H]3C(=O)N3CCCC[C@H]3C(=O)N[C@@H](C)C(=O)N2C1` [Compound 305, (S)-3-(3,5-difluorophenyl)-2-(3-(2,3-dihydrobenzofuran-5-yl)ureido)-N-((2R,6S,8aS,14aS,20S,21S,23aS)-2,6,21-trimethyl-5,8,14,19,23-pentaoxooctadecahydro-1H,5H,14H,19H-pyrido[2,1-i]dipyrrolo[2,1-c:2′,1′-l][1]oxa[4,7,10,13]tetraazacyclo-hexadecin-20-yl)propanamide] ({X8-CO}-[Phe(3,5-F2)][aThr]P[Pip]A[Pro(4R-Me)]; ester 2-C), for which the EC50 on Sa-ClpP [1] (setting [3]) stood at 480 ± 20 nM. Also, on Sa-ClpP [2], the IC50 was 7650 ± 500 nM.

On Sa-ClpP [1], `C[C@@H]1C[C@H]2C(=O)O[C@@H](C)[C@H](NC(=O)[C@H](Cc3cc(F)cc(F)c3)NC(=O)Nc3ccc(Cl)cc3F)C(=O)N3CCC[C@H]3C(=O)N3CCCC[C@H]3C(=O)N[C@@H](C)C(=O)N2C1` [Compound 307, (S)-2-(3-(4-chloro-2-fluorophenyl)ureido)-3-(3,5-difluorophenyl)-N-((2R,6S,8aS,14aS,20S,21S,23aS)-2,6,21-trimethyl-5,8,14,19,23-pentaoxooctadecahydro-1H,5H,14H,19H-pyrido[2,1-i]dipyrrolo[2,1-c:2′,1′-l][1]oxa[4,7,10,13]tetraazacyclo-hexadecin-20-yl)propanamide] ({NH(4-Cl-2-F-phenyl)-CO}-[Phe(3,5-F2)][aThr]P[Pip]A[Pro(4R-Me)]; ester 2-C) displayed an EC50 of 440 ± 30 nM. This compound yielded a half-maximal inhibitory concentration (IC50) on Sa-ClpP [2] of 7800 ± 400 nM.

Turning to `CCCC/C=C/C(=O)N[C@@H](Cc1cc(F)cc(F)c1)C(=O)N[C@@H]1C(=O)N2CCC[C@H]2C(=O)N(C)[C@@H]([C@@H](C)O)C(=O)N[C@@H](C)C(=O)N2C[C@H](C)C[C@H]2C(=O)O[C@H]1C` [Compound 308, (E)-N—((S)-3-(3,5-difluorophenyl)-1-(((2R,6S,9S,11aS,17S,18S,20aS)-9-((R)-1-hydroxyethyl)-2,6,10,18-tetramethyl-5,8,11,16,20-pentaoxohexadecahydro-1H,5H,16H-dipyrrolo[2,1-c:2′,1′-l][1]oxa[4,7,10,13]tetraazacyclohexadecin-17-yl)amino)-1-oxopropan-2-yl)hept-2-enamide] ({Heptenoyl(2E)}-[Phe(3,5-F2)][aThr]P[NMeT]A[Pro(4R-Me)]; ester 2-C), on Sa-ClpP [1] (setting [3]), the half-maximal effective concentration (EC50) is 280 ± 20 nM. The compound further showed a concentration for half-maximal inhibition (IC50) at Sa-ClpP [2] of 4400 ± 300 nM.

With `CCCC/C=C/C(=O)N[C@@H](Cc1cc(F)cc(F)c1)C(=O)N[C@@H]1C(=O)N2C[C@H](O)C[C@H]2C(=O)N2CCOC[C@H]2C(=O)N[C@@H](C)C(=O)N2C[C@H](C)C[C@H]2C(=O)O[C@H]1C` [Compound 309, (E)-N—((S)-3-(3,5-difluorophenyl)-1-(((6aS,8R,12S,13S,15aS,17R,21S,23aS)-8-hydroxy-13,17,21-trimethyl-6,11,15,20,23-pentaoxooctadecahydro-6H,11H,15H-[1,4]oxazino[3,4-i]dipyrrolo[2,1-c:2′,1′-l][1]oxa[4,7,10,13]tetraazacyclohexadecin-12-yl)amino)-1-oxopropan-2-yl)hept-2-enamide] ({Heptenoyl(2E)}-[Phe(3,5-F2)][aThr][Hyp][Morpholine(3S-CO)]A[Pro(4R-Me)]; ester 2-C), the concentration giving a half-maximal response (EC50) on Sa-ClpP [1] (setting [3]) worked out at 480 ± 20 nM. Besides, the IC50 at Sa-ClpP [2] worked out at 7200 ± 400 nM.

On to `C[C@@H]1C[C@H]2C(=O)O[C@@H](C)[C@H](NC(=O)[C@H](Cc3cc(F)cc(F)c3)NC(=O)Nc3ccc4c(c3)CCN4C)C(=O)N3CCC[C@H]3C(=O)N3CCCC[C@H]3C(=O)N[C@@H](C)C(=O)N2C1` [Compound 310, (S)-3-(3,5-difluorophenyl)-2-(3-(1-methylindolin-5-yl)ureido)-N-((2R,6S,8aS,14aS,20S,21S,23aS)-2,6,21-trimethyl-5,8,14,19,23-pentaoxooctadecahydro-1H,5H,14H,19H-pyrido[2,1-i]dipyrrolo[2,1-c:2′,1′-l][1]oxa[4,7,10,13]tetraazacyclo-hexadecin-20-yl)propanamide] ({NH(1-Me-indolin-5-yl)-CO}-[Phe(3,5-F2)][aThr]P[Pip]A[Pro(4R-Me)]; ester 2-C), for which, at Sa-ClpP [1] (setting [3]), the half-maximal effective concentration (EC50) turned out to be 440 ± 30 nM. At Sa-ClpP [2], this compound displayed a half-inhibitory concentration (IC50) of 6900 ± 300 nM.

As to `C[C@@H]1C[C@H]2C(=O)O[C@@H](C)[C@H](NC(=O)[C@H](Cc3cc(F)cc(F)c3)NC(=O)Nc3ccc4c(c3)CCN4C)C(=O)N3CCC[C@H]3C(=O)N(C)C([C@@H](C)O)C(=O)N[C@@H](C)C(=O)N2C1` (stereo partly drawn) [Compound 311, (S)-3-(3,5-difluorophenyl)-N-((2R,6S,9R,11aS,17S,18S,20aS)-9-((R)-1-hydroxyethyl)-2,6,10,18-tetramethyl-5,8,11,16,20-pentaoxohexadecahydro-1H,5H,16H-dipyrrolo[2,1-c:2′,1′-l][1]oxa[4,7,10,13]tetraazacyclohexadecin-17-yl)-2-(3-(1-methylindolin-5-yl)ureido)propanamide] ({NH(1-Me-indolin-5-yl)-CO}-[Phe(3,5-F2)][aThr]P[ξNMeThr]A[Pro(4R-Me)]; ester 2-C), the concentration for a half-maximal effect (EC50) at Sa-ClpP [1] (setting [3]) is 540 ± 20 nM. Moreover, at Sa-ClpP [2], the half-maximal inhibitory concentration (IC50) turned out to be 7500 ± 300 nM.

Take `C[C@@H]1C[C@H]2C(=O)O[C@@H](C)[C@H](NC(=O)[C@H](Cc3cc(F)cc(F)c3)NC(=O)Nc3ccc4c(c3)CCN4C)C(=O)N3CCC[C@H]3C(=O)N3CCOC[C@H]3C(=O)N[C@@H](C)C(=O)N2C1` [Compound 312, (S)-3-(3,5-difluorophenyl)-2-(3-(1-methylindolin-5-yl)ureido)-N-((6aS,12S,13S,15aS,17R,21S,23aS)-13,17,21-trimethyl-6,11,15,20,23-pentaoxooctadecahydro-6H,11H,15H-[1,4]oxazino[3,4-i]dipyrrolo[2,1-c:2′,1′-l][1]oxa[4,7,10,13]tetraazacyclo-hexadecin-12-yl)propanamide] ({NH(1-Me-indolin-5-yl)-CO}-[Phe(3,5-F2)][aThr]P[Morpholine(3S-CO)]A[Pro(4R-Me)]; ester 2-C): the EC50 on Sa-ClpP [1] (setting [3]) turned out to be 440 ± 20 nM. At Sa-ClpP [2], this compound returned a half-inhibitory concentration (IC50) of 6300 ± 400 nM.

On Sa-ClpP [1], `C[C@@H]1C[C@H]2C(=O)O[C@@H](C)[C@H](NC(=O)[C@H](Cc3cc(F)cc(F)c3)NC(=O)Nc3ccc(Cl)cc3F)C(=O)N3CCC[C@H]3C(=O)N(C)C([C@@H](C)O)C(=O)N[C@@H](C)C(=O)N2C1` (stereo partly drawn) [Compound 313, (S)-2-(3-(4-chloro-2-fluorophenyl)ureido)-3-(3,5-difluorophenyl)-N-((2R,6S,9R,11aS,17S,18S,20aS)-9-((R)-1-hydroxyethyl)-2,6,10,18-tetramethyl-5,8,11,16,20-pentaoxohexadecahydro-1H,5H,16H-dipyrrolo[2,1-c:2′,1′-l][1]oxa[4,7,10,13]tetraazacyclohexadecin-17-yl)propanamide] ({NH(4-Cl-2-F-phenyl)-CO}-[Phe(3,5-F2)][aThr]P[ξNMeThr]A[Pro(4R-Me)]; ester 2-C) showed an EC50 of 340 ± 10 nM. This compound also showed an IC50 on Sa-ClpP [2] of 7300 ± 500 nM.

For the origin of these results see patent US10457707B2, “Substituted urea depsipeptide analogs as activators of the CLPP endopeptidase” (priority 2015, dated 2019).
